{"source": "patent US20240101602A1", "about": "“ANTIMICROBIAL PEPTIDES AND METHOD OF PREVENTING OR TREATING INFECTION BY USING THE SAME” (priority 2020, published 2024)", "key": {"[1]": {"test_system": "Acinetobacter baumannii ATCC 17978"}, "[2]": {"test_system": "Cryptococcus deuterogattii R265"}, "[3]": {"test_system": "Cryptococcus neoformans 89-610 (fluconazole-resistant)"}, "[4]": {"test_system": "Candida albicans 12-99 (fluconazole-resistant)"}, "[5]": {"test_system": "Staphylococcus aureus BCRC 10777"}, "[6]": {"test_system": "Staphylococcus epidermidis ATCC 14990"}, "[7]": {"test_system": "Pseudomonas aeruginosa ATCC 9027", "conditions": "ATCC 9027"}, "[8]": {"test_system": "Cryptococcus neoformans H99"}, "[9]": {"test_system": "Cryptococcus gattii WM276"}, "Candida albicans SC5314": {"test_system": "Candida albicans SC5314", "conditions": "SC5314"}, "[10]": {"test_system": "Klebsiella pneumonia NTUH-K2044"}, "[11]": {"test_system": "Cryptococcus neoformans T1 (fluconazole-resistant)"}, "red blood cells": {"test_system": "red blood cells", "type": "cell-based, rat", "protocol": "Further, the hemolytic activity of the antimicrobial peptides was tested. EDTA-treated rat whole blood was centrifuged at 840×g for 3 minutes at 4° C. to separate blood cells and plasma. The plasma was removed, and the blood cells were washed three times with PBS having the same volume as the original blood volume by gently turning the centrifuge tube upside down. After washing, ten microliters of blood cells were diluted in PBS 2000 times to count the cells. Finally, red blood cells were diluted to 5×10^8 cells/mL in PBS. Peptides were dissolved in water and filtered through a 0.2-μm filter to make a stock solution. The peptide concentration was quantitated by UV280. The peptide solution was diluted in PBS to different concentrations (5 times of tested concentration). Twenty microliters of peptide in PBS were mixed with 80 μL of red blood cell solution in a 96-well plate (V-bottom). […] The concentration of heme contained in each well was measured by UV405 using Infinite M1000 pro (Tecan). The hemolytic activity was calculated using the following formula: Hemolytic activity=[(F−F0)/(Ft−F0)]×100% • F is UV405 of the peptide-treated sample; • F0 is UV405 of sample without peptide (negative control); • Ft is UV405 of the Triton-treated sample (positive control)."}, "[12]": {"test_system": "Candida albicans 89 (echinocandin-resistant)"}, "[13]": {"test_system": "Salmonella typhimurium NCHU 15721", "conditions": "murium NCHU 15721"}}, "note": "Non-standard residues stand in square brackets, D forms with d. Residues, ends and D or L forms follow the SMILES beside them.", "data": [{"smiles": "CC(=O)N[C@@H](Cc1c[nH]c2ccccc12)C(=O)N[C@H](CCCCN)C(=O)N[C@H](CCCCN)C(=O)N[C@H](CC(C)C)C(=O)N[C@H](CCCCN)C(=O)N[C@H](CCCCN)C(=O)N[C@H](CC(C)C)C(=O)N[C@H](CC(C)C)C(=O)N[C@H](CCCCN)C(=O)N[C@H](CCCCN)C(=O)N[C@H](CC(C)C)C(=O)N[C@H](CCCCN)C(=O)N[C@H](CCCCN)C(=O)N[C@H](CC(C)C)C(N)=O", "note": "[pepdD2, Ac-Wkklkkllkklkkl-NH2] (Ac-W[dK][dK][dL][dK][dK][dL][dL][dK][dK][dL][dK][dK][dL]-NH2)", "values": [{"measurement": "MBC", "setting": "[1]", "result": 8, "unit": "µg/mL"}, {"measurement": "MFC", "setting": "[2]", "result": 2, "unit": "µg/mL"}, {"measurement": "MIC", "setting": "[2]; Cryptococcus deuterogattii R265", "result": 2, "unit": "µg/mL"}, {"measurement": "MFC", "setting": "[3]; 89-610 (fluconazole-resistant)", "result": 2, "unit": "µg/mL"}, {"measurement": "MIC", "setting": "[3]; Cryptococcus neoformans 89-610 (fluconazole-resistant)", "result": 2, "unit": "µg/mL"}, {"measurement": "MFC", "setting": "[4]", "result": 32, "unit": "µg/mL"}, {"measurement": "MIC", "setting": "[4]", "result": 16, "unit": "µg/mL"}, {"measurement": "MBC", "setting": "[5]", "result": 32, "unit": "µg/mL"}, {"measurement": "MIC", "setting": "[5]", "result": 32, "unit": "µg/mL"}, {"measurement": "MBC", "setting": "[6]", "result": 32, "unit": "µg/mL"}, {"measurement": "MIC", "setting": "[6]", "result": 16, "unit": "µg/mL"}, {"measurement": "MBC", "setting": "[7]", "result": 4, "unit": "µg/mL"}, {"measurement": "MIC", "setting": "[7]", "result": 4, "unit": "µg/mL"}, {"measurement": "MIC", "setting": "[8]; Cryptococcus neoformans H99", "result": 4, "unit": "µg/mL"}, {"measurement": "MFC", "setting": "[8]; H99", "result": 4, "unit": "µg/mL"}, {"measurement": "MFC", "setting": "[9]", "result": 2, "unit": "µg/mL"}, {"measurement": "MIC", "setting": "[9]", "result": 2, "unit": "µg/mL"}, {"measurement": "MFC", "setting": "Candida albicans SC5314", "result": 32, "unit": "µg/mL"}, {"measurement": "MIC", "setting": "Candida albicans SC5314", "result": 32, "unit": "µg/mL"}, {"measurement": "MBC", "setting": "[10]", "result": 32, "unit": "µg/mL"}, {"measurement": "MIC", "setting": "[10]", "result": 32, "unit": "µg/mL"}, {"measurement": "MIC", "setting": "[11]; Cryptococcus neoformans T1 (fluconazole-resistant)", "result": 2, "unit": "µg/mL"}, {"measurement": "MFC", "setting": "[11]; T1 (fluconazole-resistant)", "result": 2, "unit": "µg/mL"}, {"measurement": "hemolytic activity", "setting": "red blood cells", "result": "very little or non-hemolytic activity"}, {"measurement": "MFC", "setting": "[12]", "result": 32, "unit": "µg/mL"}, {"measurement": "MIC", "setting": "[12]", "result": 32, "unit": "µg/mL"}, {"measurement": "MBC", "setting": "[13]", "result": 16, "unit": "µg/mL"}, {"measurement": "MIC", "setting": "[13]", "result": 16, "unit": "µg/mL"}]}]}
